Measurements as given in patent US8362004B2, “Piperazine analogs as broad-spectrum influenza antivirals” (priority 2010, dated 2013).
Read-outs that look alike come from different tables or passages of the source.

Assays:
[1] = test system: influenza A/WSN/33; assay: Antiviral assay in MDCK cells, viral neuraminidase (MUNANA) readout, A/H1N1/WSN; format: cell-based; conditions: read-out: A/H1N1/WSN Activity
[2] = test system: Influenza A/Solomon Islands/3/06; assay: Antiviral assay in MDCK cells, viral neuraminidase (MUNANA) readout, A/H1N1/Solomon Islands; format: cell-based; conditions: read-out: A/H1N1/Solomon Islands Activity
[3] = test system: influenza A/Brisbane/10/2007; assay: Antiviral assay in MDCK cells, viral neuraminidase (MUNANA) readout, A/H3N2/Brisbane; format: cell-based; conditions: read-out: A/H3N2/Brisbane Activity
[4] = test system: A/H5N1/Duck_MN; assay: microbe, parasite or virus in culture; format: cell-based, influenza A
[5] = test system: A/H5N1/Duck_PA; assay: microbe, parasite or virus in culture; format: cell-based, influenza A
[6] = test system: A/H5N1/Gull_PA; assay: microbe, parasite or virus in culture; format: cell-based, influenza A
[7] = MDCK cells, MOI 0.001, 48 hrs post infection, viral NA activity
[8] = Influenza A virus, H1N1, MDCK, 48 h
[9] = Influenza A virus, H3N2, MDCK, 48 h
[10] = Influenza A virus, H5N1, read-out: A/H5N1/Duck_MN
[11] = Influenza A virus, H5N1, read-out: A/H5N1/Duck_PA
[12] = Influenza A virus, H5N1, read-out: A/H5N1/Gull_PA

Row | SMILES | EC50 [1, 7] | EC50 [2, 7] | EC50 [3, 7] | other results
1 | COc1ccccc1-c1noc(C)c1C(=O)N1CCN(c2cc(NC(=O)c3ccc(-n4cncn4)cc3)c([N+](=O)[O-])cc2Cl)CC1 [Example 37] | < 100 nM | < 100 nM | < 1000 nM | –
2 | COc1ccccc1-c1nnn(C)c1C(=O)N1CCN(c2cc(NC(=O)c3ccc(N4CCCS4(=O)=O)cc3)c(Br)cc2Cl)CC1 [Example 120, N-(4-chloro-5-(4-(4-(2-methoxyphenyl)-1-methyl-1H-1,2,3-triazole-5-carbonyl)piperazin-1-yl)-2-bromophenyl)-4-(1,1-dioxidoisothiazolidin-2-yl)benzamide] | – | – | – | EC50 ([1]; Influenza A virus, MDCK, 48 h): < 1000 nM; EC50 [2, 8]: < 1000 nM; EC50 [3, 9]: < 10000 nM
3 | COc1ccccc1-c1noc(C)c1C(=O)N1CCN(c2cc(NC(=O)c3ccco3)c([N+](=O)[O-])cc2Cl)CC1 [Example 8] | – | – | – | EC50 ([4]; read-out: A/H5N1/Duck_MN): < 1000 nM; EC50 ([5]; read-out: A/H5N1/Duck_PA): < 100 nM; EC50 ([6]; read-out: A/H5N1/Gull_PA): < 100 nM
4 | COc1ccccc1-c1noc(C)c1C(=O)N1CCN(c2cc(NC(=O)c3nccs3)c(Cl)cc2Cl)CC1 [Example 56] | < 1000 nM | < 10000 nM | < 10000 nM | –
5 | COc1ccccc1-c1nnn(C)c1C(=O)N1CCN(c2cc(NC(=O)c3ccc(N4CCCC4=O)cc3)c([N+](=O)[O-])cc2C#N)CC1 [Example 122, N-(4-cyano-5-(4-(4-(2-methoxyphenyl)-1-methyl-1H-1,2,3-triazole-5-carbonyl)piperazin-1-yl)-2-nitrophenyl)-4-(2-oxopyrrolidin-1-yl)benzamide] | – | – | – | EC50 ([1]; Influenza A virus, MDCK, 48 h): < 1000 nM; EC50 [2, 8]: < 1000 nM; EC50 [3, 9]: < 1000 nM
6 | COc1ccccc1-c1nnn(C)c1C(=O)N1CCN(c2cc(NC(=O)c3ccc(N4CCCS4(=O)=O)cc3)c([N+](=O)[O-])cc2Cl)CC1 [Example 92] | < 100 nM | < 100 nM | < 1000 nM | –
7 | COc1ccccc1-c1noc(C)c1C(=O)N1CCN(c2cc(NC(=O)c3ccc(OC(F)F)cc3)c([N+](=O)[O-])cc2Cl)CC1 [Example 13] | – | – | – | EC50 ([4]; read-out: A/H5N1/Duck_MN): < 1000 nM; EC50 ([5]; read-out: A/H5N1/Duck_PA): < 1000 nM; EC50 ([6]; read-out: A/H5N1/Gull_PA): < 100 nM
8 | COc1ccccc1-c1noc(C)c1C(=O)N1CCN(c2cc(NC(=O)c3ccc(N4CCCC4=O)cc3)c([N+](=O)[O-])cc2Cl)CC1 [Example 47, N-(4-chloro-5-(4-(3-(2-methoxyphenyl)-5-methylisoxazole-4-carbonyl)piperazin-1-yl)-2-nitrophenyl)-4-(2-oxopyrrolidin-1-yl)benzamide] | – | – | – | EC50 ([1]; Influenza A virus, MDCK, 48 h): < 100 nM; EC50 [2, 8]: < 100 nM; EC50 [3, 9]: < 1000 nM
9 | COc1ccccc1-c1noc(C)c1C(=O)N1CCN(c2cc(NC(=O)c3ccc(N(C)S(C)(=O)=O)cc3)c([N+](=O)[O-])cc2Cl)CC1 [Example 35] | < 100 nM | < 100 nM | < 1000 nM | –
10 | COc1ccccc1-c1noc(C)c1C(=O)N1CCN(c2cc(NC(=O)C3CCC3)c([N+](=O)[O-])cc2Cl)CC1 [Example 9] | < 100 nM | < 1000 nM | < 10000 nM | –
11 | COc1ccccc1-c1n[nH]c(C)c1C(=O)N1CCN(c2cc(NC(=O)c3ccc(N(C)C)cc3)c([N+](=O)[O-])cc2Cl)CC1 [Example 70, N-(4-chloro-5-(4-(3-(2-methoxyphenyl)-5-methyl-1H-pyrazole-4-carbonyl)piperazin-1-yl)-2-nitrophenyl)-4-(dimethylamino)benzamide] | – | – | – | EC50 ([1]; Influenza A virus, MDCK, 48 h): < 100 nM; EC50 [2, 8]: < 1000 nM; EC50 [3, 9]: < 10000 nM
12 | COc1ccccc1-n1ncc(C)c1C(=O)N1CCN(c2cc(NC(=O)c3ccc(N(C)C)cc3)c([N+](=O)[O-])cc2Cl)CC1 [Example 73] | < 1000 nM | < 100 nM | < 1000 nM | –
13 | COc1ccccc1-c1noc(C)c1C(=O)N1CCN(c2nc(NC(=O)c3ccc(N(C)C)cc3)c(Cl)cc2Cl)CC1 [Example 52] | < 1000 nM | < 1000 nM | < 10000 nM | –
14 | COc1ccccc1-c1noc(C)c1C(=O)N1CCN(c2cc(NC(=O)c3ccc(N(C)C)cc3)c(C)cc2Br)CC1 [Example 54] | < 1000 nM | < 1000 nM | < 10000 nM | –
15 | COc1ccccc1-c1noc(C)c1C(=O)N1CCN(c2cc(NC(=O)c3ccc(N(C)C)cc3)c([N+](=O)[O-])cc2C#N)CC1 [Example 68] | < 1000 nM | < 100 nM | < 100 nM | –
16 | COc1ccc(C(=O)Nc2cc(N3CCN(C(=O)c4c(-c5ccccc5OC)noc4C)CC3)c(Cl)cc2[N+](=O)[O-])cc1 [Example 1, N-(4-chloro-5-(4-(3-(2-methoxyphenyl)-5-methylisoxazole-4-carbonyl)piperazin-1-yl)-2-nitrophenyl)-4-methoxybenzamide] | – | – | – | EC50 ([1]; Influenza A virus, MDCK, 48 h): < 100 nM; EC50 [2, 8]: < 100 nM; EC50 [3, 9]: < 1000 nM
17 | Cc1onc(-c2cccc3ccccc23)c1C(=O)N1CCN(c2cc(NC(=O)c3nccs3)c([N+](=O)[O-])cc2Cl)CC1 [Example 78, N-(4-chloro-5-(4-(5-methyl-3-(naphthalen-1-yl)isoxazole-4-carbonyl)piperazin-1-yl)-2-nitrophenyl)thiazole-2-carboxamide] | – | – | – | EC50 [4, 10]: < 1000 nM; EC50 [5, 11]: < 1000 nM; EC50 [6, 12]: < 100 nM

Row | SMILES | EC50 [1, 7] | EC50 [2, 7] | EC50 [3, 7] | other results
18 | COc1ccccc1-c1noc(C)c1C(=O)N1CCN(c2cc(NC(=O)c3ccc(N(C)C)cc3)c(Cl)cc2Cl)CC1 [Example 55] | < 100 nM | < 100 nM | < 1000 nM | –
19 | COc1ccccc1-c1noc(C)c1C(=O)N1CCN(c2cc(NC(=O)c3ccc(-c4nnc(C)o4)cc3)c([N+](=O)[O-])cc2Cl)CC1 [Example 38] | < 1000 nM | < 1000 nM | < 100 nM | –
20 | COc1ccc(C(=O)Nc2cc(N3CCN(C(=O)c4c(-c5ccccc5OC)noc4C)CC3)c(C#N)cc2Cl)cc1 [Example 66] | < 10000 nM | < 10000 nM | < 10000 nM | –
21 | COc1ccccc1-c1noc(C)c1C(=O)N1CCN(c2cc(NC(=O)c3ccc(C)cc3)c([N+](=O)[O-])cc2Cl)CC1 [Example 24] | < 100 nM | < 100 nM | < 10000 nM | –
22 | CCOc1ccc(C(=O)Nc2cc(N3CCN(C(=O)c4c(-c5ccccc5OC)noc4C)CC3)c(Cl)cc2[N+](=O)[O-])cc1 [Example 15] | – | – | – | EC50 ([4]; read-out: A/H5N1/Duck_MN): < 1000 nM; EC50 ([5]; read-out: A/H5N1/Duck_PA): < 1000 nM; EC50 ([6]; read-out: A/H5N1/Gull_PA): < 100 nM
23 | COc1ccc(C(=O)Nc2nc(N3CCN(C(=O)c4c(-c5ccccc5OC)noc4C)CC3)c(Cl)cc2[N+](=O)[O-])cc1 [Example 43] | < 1000 nM | < 1000 nM | < 100 nM | –
24 | Cc1c[nH]c(-c2ccccc2Cl)c1C(=O)N1CCN(c2cc(NC(=O)c3ccc(N(C)C)cc3)c([N+](=O)[O-])cc2Cl)CC1 [Example 72] | < 100 nM | < 100 nM | < 1000 nM | –
25 | COc1ccccc1-c1ncn(C)c1C(=O)N1CCN(c2cc(NC(=O)c3ccc(N(C)C)cc3)c([N+](=O)[O-])cc2Cl)CC1 [Example 81] | < 100 nM | < 100 nM | < 10000 nM | –
26 | COc1ccccc1-c1nnn(C)c1C(=O)N1CCN(c2cc(NC(=O)c3ccc(N4CCCC4=O)cc3)c([N+](=O)[O-])cc2Cl)CC1 [Example 84, N-(4-chloro-5-(4-(4-(2-methoxyphenyl)-1-methyl-1H-1,2,3-triazole-5-carbonyl)piperazin-1-yl)-2-nitrophenyl)-4-(2-oxopyrrolidin-1-yl)benzamide] | – | – | – | EC50 ([1]; Influenza A virus, MDCK, 48 h): < 100 nM; EC50 [2, 8]: < 100 nM; EC50 [3, 9]: < 100 nM
27 | COc1ccc(C(=O)Nc2cc(N3CCN(C(=O)c4c(-c5ccccc5OC)ncn4C)CC3)c(Cl)cc2[N+](=O)[O-])cc1 [Example 102] | < 100 nM | < 1000 nM | < 10000 nM | –
28 | COc1ccccc1-c1ncn(C)c1C(=O)N1CCN(c2cc(NC(=O)c3ccc(N(C)C)cc3)c([N+](=O)[O-])cc2C#N)CC1 [Example 124] | < 100 nM | < 100 nM | < 100 nM | –
29 | C=Cc1cc(Cl)c(N2CCN(C(=O)c3c(-c4ccccc4OC)noc3C)CC2)cc1NC(=O)c1ccc(N(C)C)cc1 [Example 125, N-(4-chloro-5-(4-(3-(2-methoxyphenyl)-5-methylisoxazole-4-carbonyl)piperazin-1-yl)-2-vinylphenyl)-4-(dimethylamino)benzamide] | – | – | – | EC50 ([1]; Influenza A virus, MDCK, 48 h): < 1000 nM; EC50 [2, 8]: < 1000 nM; EC50 [3, 9]: < 10000 nM
30 | COc1ccccc1-c1noc(C)c1C(=O)N1CCN(c2cc(NC(=O)c3ccc(N(C)C)cc3)c(C#N)cc2Cl)CC1 [Example 65] | < 100 nM | < 1000 nM | < 10000 nM | –
31 | COc1ccc(C(=O)Nc2cc(N3CCN(C(=O)c4c(-c5cccc6ccccc56)noc4C)CC3)c(Cl)cc2[N+](=O)[O-])cc1 [Example 77, N-(4-chloro-5-(4-(5-methyl-3-(naphthalen-1-yl)isoxazole-4-carbonyl)piperazin-1-yl)-2-nitrophenyl)-4-methoxybenzamide] | – | – | – | EC50 [4, 10]: < 1000 nM; EC50 [5, 11]: < 1000 nM; EC50 [6, 12]: < 100 nM
32 | COc1ccccc1-c1noc(C)c1C(=O)N1CCN(c2cc(NC(=O)c3ccc(SC)cc3)c([N+](=O)[O-])cc2Cl)CC1 [Example 11] | – | – | – | EC50 ([4]; read-out: A/H5N1/Duck_MN): < 1000 nM; EC50 ([5]; read-out: A/H5N1/Duck_PA): < 100 nM; EC50 ([6]; read-out: A/H5N1/Gull_PA): < 100 nM
33 | COc1ccccc1-c1noc(CF)c1C(=O)N1CCN(c2cc(NC(=O)c3ccc(N(C)C)cc3)c(Cl)cc2Cl)CC1 [Example 69, N-(2,4-dichloro-5-(4-(5-(fluoromethyl)-3-(2-methoxyphenyl)isoxazole-4-carbonyl)piperazin-1-yl)phenyl)-4-(dimethylamino)benzamide] | – | – | – | EC50 ([1]; Influenza A virus, MDCK, 48 h): < 1000 nM; EC50 [2, 8]: < 1000 nM; EC50 [3, 9]: < 10000 nM
